Assay results published in article PMC6259843 (Molecules, 2011).

Biological target: T1, pancreatic α-amylase (Sus scrofa, UniProt P00690)
T1 construct: gene AMY2
T1 sequence (P00690 16-511): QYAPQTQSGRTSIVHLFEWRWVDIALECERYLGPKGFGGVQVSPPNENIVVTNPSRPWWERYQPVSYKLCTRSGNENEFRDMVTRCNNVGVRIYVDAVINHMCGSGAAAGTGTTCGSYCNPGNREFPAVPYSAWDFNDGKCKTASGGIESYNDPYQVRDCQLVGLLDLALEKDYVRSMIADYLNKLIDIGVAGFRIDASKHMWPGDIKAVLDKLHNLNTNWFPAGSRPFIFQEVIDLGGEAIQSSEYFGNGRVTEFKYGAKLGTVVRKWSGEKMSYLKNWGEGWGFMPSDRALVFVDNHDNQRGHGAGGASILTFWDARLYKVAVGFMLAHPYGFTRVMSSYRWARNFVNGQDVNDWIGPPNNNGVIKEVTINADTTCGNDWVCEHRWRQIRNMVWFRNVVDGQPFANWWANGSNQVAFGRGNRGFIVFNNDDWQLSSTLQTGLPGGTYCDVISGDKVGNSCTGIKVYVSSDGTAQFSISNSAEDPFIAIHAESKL
Test: starch hydrolysis inhibition assay with DNS readout at […] nm; Lineweaver-Burk kinetics
Assay type: biochemical

## C[C@@H]1O[C@@H](OC[C@H]2O[C@@H](Oc3cc4c(O)cc(O)cc4[o+]c3-c3ccc(O)c(O)c3)[C@H](O)[C@@H](O)[C@@H]2O)[C@H](O)[C@H](O)[C@H]1O [C3R, Cyanidin-3-rutinoside]
  IC50: 24.4 ± 0.1 µM
